According to ChEMBL document CHEMBL1149385, “A selective estrogen receptor modulator for the treatment of hot flushes” (J Med Chem, 2006):
Activity calls are given as the source filed them. The rule behind the calls is not given here.

Legend:
Rattus norvegicus [1] = assay: Eosinophil peroxidase activity in ovariectomized orally dosed Sprague-Dawley rat; assay type: functional, organism-based; conditions: filed as agonist
Rattus norvegicus [2] = assay: Ability to block ovariectomy-induced bone loss in orally dosed Sprague-Dawley rat; assay type: functional, organism-based
Estrogen receptor [3] = molecular target: T1, Estrogen receptor (Homo sapiens, UniProt P03372); assay: Displacement of [3H]17beta-estradiol from ERalpha
T1 sequence (P03372 whole entry): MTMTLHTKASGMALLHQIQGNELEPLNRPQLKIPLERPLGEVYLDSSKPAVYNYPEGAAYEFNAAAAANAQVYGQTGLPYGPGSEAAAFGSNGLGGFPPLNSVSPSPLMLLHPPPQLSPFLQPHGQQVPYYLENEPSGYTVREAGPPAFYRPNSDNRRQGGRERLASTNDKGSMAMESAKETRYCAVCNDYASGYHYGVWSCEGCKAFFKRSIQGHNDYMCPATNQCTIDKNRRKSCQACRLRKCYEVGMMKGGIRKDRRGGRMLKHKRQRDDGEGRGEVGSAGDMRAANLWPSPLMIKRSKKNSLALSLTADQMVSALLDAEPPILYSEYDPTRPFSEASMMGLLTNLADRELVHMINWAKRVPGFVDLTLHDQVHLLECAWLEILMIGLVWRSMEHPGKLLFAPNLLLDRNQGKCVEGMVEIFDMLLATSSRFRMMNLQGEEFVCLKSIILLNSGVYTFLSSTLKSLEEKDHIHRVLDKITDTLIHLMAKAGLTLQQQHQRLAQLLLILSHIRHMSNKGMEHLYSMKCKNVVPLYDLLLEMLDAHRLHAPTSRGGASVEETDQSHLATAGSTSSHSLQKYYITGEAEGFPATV

Estrogen receptor beta = Estrogen receptor beta (Homo sapiens, UniProt Q92731); assay: Displacement of [3H]17beta-estradiol from ERbeta
Estrogen receptor beta, sequence (Q92731 whole entry): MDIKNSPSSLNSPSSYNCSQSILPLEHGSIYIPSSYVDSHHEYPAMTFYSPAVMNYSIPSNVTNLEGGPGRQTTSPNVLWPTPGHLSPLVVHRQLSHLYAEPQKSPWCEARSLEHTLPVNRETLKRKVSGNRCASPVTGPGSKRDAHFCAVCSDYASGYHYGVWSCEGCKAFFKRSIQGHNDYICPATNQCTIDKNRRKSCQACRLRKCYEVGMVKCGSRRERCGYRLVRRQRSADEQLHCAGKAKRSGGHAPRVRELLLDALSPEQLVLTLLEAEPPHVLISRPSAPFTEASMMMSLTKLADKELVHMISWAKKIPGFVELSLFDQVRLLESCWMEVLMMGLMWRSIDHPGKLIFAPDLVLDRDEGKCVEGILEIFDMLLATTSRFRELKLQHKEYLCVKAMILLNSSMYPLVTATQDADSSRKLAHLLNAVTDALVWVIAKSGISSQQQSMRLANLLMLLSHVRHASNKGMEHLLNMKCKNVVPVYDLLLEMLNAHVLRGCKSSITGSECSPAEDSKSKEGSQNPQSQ

Estrogen receptor [4] = molecular target: T2, Estrogen receptor (Homo sapiens, UniProt Q92731+P03372); assay: Antagonist effect on breast adenocarcinoma-derived MCF7 cell line; assay type: functional, cell-based
Estrogen receptor [5] = molecular target: T2, Estrogen receptor; assay: Antagonist effect on Ishikawa uterine cancer cell line in presence of 17-beta-estradiol; assay type: functional, cell-based
Rattus norvegicus [6] = assay: Inhibition of estrogen-induced effect on uterine weight in orally dosed Sprague-Dawley rat; assay type: functional
Rattus norvegicus [7] = assay: Ability to reduce serum cholesterol level in ovariectomized orally dosed Sprague-Dawley rat at 0.01 mg/kg; assay type: functional; set-up: scale not given: the % may be the effect or the level left; conditions: route oral
Rattus norvegicus [8] = assay: Efficacy against hot flush in morphine dependent ovariectomized orally dosed Sprague-Dawley rat model; assay type: functional, organism-based

SMILES | Activity (Rattus norvegicus [1]) | Activity (Rattus norvegicus [2]) | Ki (Estrogen receptor [3]) [nM] | Ki (Estrogen receptor beta) [nM] | IC50 (Estrogen receptor [4]) [nM] | IC50 (Estrogen receptor [5]) [nM] | ED50 (Rattus norvegicus [6]) | Activity (Rattus norvegicus [7]) [%] | Efficacy (Rattus norvegicus [8]) | ED50 (Rattus norvegicus [6]; po) [mg/kg]
O=C(c1ccc(OCCN2CCCC2)cc1)c1c(-c2ccc(O)cc2)sc2cc(O)ccc12 | Antagonist | Active |  |  |  |  |  |  |  | 
Cl.Oc1ccc2c3c(ccc2c1)-c1cc(F)cc(F)c1O[C@H]3c1ccc(OCCN2CCCCC2)cc1 |  |  | 5.8 | 54 | 330 | 430 | inactive |  |  | 
Cl.Oc1ccc2c3c(ccc2c1)-c1cc(F)cc(F)c1O[C@@H]3c1ccc(OCCN2CCCCC2)cc1 | Antagonist | Active | 0.3 | 0.5 | 1.4 | 5.3 |  | 50 | Dose-dependent effect | 0.03
